Measurements as given in ChEMBL document CHEMBL5303304, “EUbOPEN Chemogenomics Library - IncuCyte” (2023).

Assays:
Type in all cases: toxicity, cell-based
[1] = system: HEK-293T; experiment: Incucyte cell viability with HEK293T; conditions: human, 10 µM, compound concentration 10 uM
[2] = system: Fibroblast; experiment: Incucyte cell viability with human fibroblast; conditions: 10 µM, compound concentration 10 uM
[3] = system: U2OS; experiment: Incucyte cell viability with U2OS; conditions: human, 10 µM, compound concentration 10 uM
Also: unitless GR value; below 1 slowed growth and below 0 cell loss.

| Structure (SMILES) | Growth Rate ([1]; 0 h, replicate number 1) | Growth Rate ([1]; 0 h, replicate number 2) | Growth Rate ([2]; 0 h, replicate number 1) | Growth Rate ([2]; 18 h, replicate number 2) | Growth Rate ([3]; 0 h, replicate number 1) | Growth Rate ([3]; 0 h, replicate number 2) | Growth Rate ([3]; 6 h, replicate number 2) | Growth Rate ([3]; 12 h, replicate number 1) | Growth Rate ([3]; 12 h, replicate number 2) | Growth Rate ([3]; 18 h, replicate number 1) | Growth Rate ([3]; 18 h, replicate number 2) | Growth Rate ([3]; 24 h, replicate number 1) | Growth Rate ([3]; 24 h, replicate number 2) | Growth Rate ([1]; 6 h, replicate number 2) | Growth Rate ([1]; 12 h, replicate number 2) | Growth Rate ([1]; 24 h, replicate number 2) | Growth Rate ([2]; 0 h, replicate number 2) | Growth Rate ([2]; 6 h, replicate number 1) | Growth Rate ([2]; 12 h, replicate number 1) | Growth Rate ([3]; 6 h, replicate number 1) | also measured |
| --- | --- | --- | --- | --- | --- | --- | --- | --- | --- | --- | --- | --- | --- | --- | --- | --- | --- | --- | --- | --- | --- |
| COc1nc2ccc([C@@](O)(c3ccccc3)C3CCN(C(C)=O)CC3)cc2c(Cl)c1Cc1ccc(-n2cccn2)cc1 [JNJ-54119936] | -0.96 | -1 | -1 | 0.98 | -1 | 0.93 | 0.45 | 0.93 | 0.72 | 0.84 | 0.7 | 0.94 | 0.64 | – | – | – | – | – | – | – | Growth Rate ([1]; 12 h, replicate number 1): 0.65; Growth Rate ([1]; 18 h, replicate number 1): 0.37; Growth Rate ([1]; 24 h, replicate number 1): 0.25 |
| CC#CC(=O)N1CCN(c2nc(-c3ccc(Oc4ccccc4)cc3)c(C(N)=O)s2)CC1 | – | -0.85 | 0.51 | 0.4 | 0.94 | – | 0.82 | 0.55 | 0.92 | 0.66 | 0.94 | 0.69 | 0.94 | 0.66 | 0.74 | 0.64 | 0.75 | 0.87 | 0.5 | 0.5 | Growth Rate ([1]; 6 h, replicate number 1): 0.41; Growth Rate ([1]; 12 h, replicate number 1): 0.43; Growth Rate ([1]; 18 h, replicate number 1): 0.61; Growth Rate ([1]; 18 h, replicate number 2): 0.6; Growth Rate ([1]; 24 h, replicate number 1): 0.66; Growth Rate ([2]; 6 h, replicate number 2): 0.18; Growth Rate ([2]; 12 h, replicate number 2): 0.22; Growth Rate ([2]; 18 h, replicate number 1): 0.52; Growth Rate ([2]; 24 h, replicate number 1): 0.32; Growth Rate ([2]; 24 h, replicate number 2): 0.44 |
| C[C@@H](C(N)=O)[C@H](N)c1nc2cc(C(C)(C)C)ccc2[nH]1 [PF-06305591] | – | – | 0.3 | 0.77 | -0.1 | -0.8 | – | 0.69 | 0.86 | – | 0.91 | 0.95 | 0.99 | 0.51 | 0.9 | 0.94 | – | -0.98 | -0.52 | – | Growth Rate ([1]; 18 h, replicate number 2): 0.91 |
| CS(=O)(=O)O.C[C@H](NC(=O)c1cnc2n1[C@](C)(Cc1ccc(C#N)cc1)C(=O)N2c1cc(Cl)c(F)c(Cl)c1)C(=O)NC1(c2ccccn2)CC1 | 0.44 | 0.94 | -1 | 0.61 | – | -0.46 | 0.54 | 0.92 | 0.49 | 0.98 | 0.81 | 0.82 | – | – | – | – | – | 0.73 | – | 0.8 | Growth Rate ([2]; 6 h, replicate number 2): 0.85; Growth Rate ([2]; 12 h, replicate number 2): 0.94; Growth Rate ([2]; 18 h, replicate number 1): 0.98; Growth Rate ([2]; 24 h, replicate number 1): 0.73; Growth Rate ([2]; 24 h, replicate number 2): 0.87 |
| Cc1ccc(S(=O)(=O)O)cc1.Cn1cc(-c2ccc(F)c(C(F)(F)F)c2)nc1C1CCN(c2ncnc3[nH]ncc23)CC1 | 0.72 | -0.63 | 0.54 | – | 0.87 | -1 | – | – | – | – | – | – | – | – | – | 0.9 | -0.97 | -1 | – | – | – |
| Cl.Cl.Fc1ccc([C@@H]2CCNC[C@H]2COc2ccc3c(c2)OCO3)cc1.Fc1ccc([C@@H]2CCNC[C@H]2COc2ccc3c(c2)OCO3)cc1.O [PAROXETINE HYDROCHLORIDE] | – | – | – | 0.59 | – | -1 | 0.89 | – | 0.84 | – | 0.89 | – | 0.98 | – | – | 0.86 | – | -0.26 | -1 | 0.82 | Growth Rate ([1]; 6 h, replicate number 1): 0.25; Growth Rate ([2]; 6 h, replicate number 2): -1; Growth Rate ([2]; 12 h, replicate number 2): 0.54; Growth Rate ([2]; 24 h, replicate number 2): 0.62 |
| NC(=O)c1ccc2[nH]c(-c3ccc(Oc4ccc(Cl)cc4)cc3)nc2c1 | 0.58 | – | 0.02 | – | – | -0.59 | 0.74 | 0.47 | 0.71 | 0.72 | 0.83 | 0.75 | 0.82 | 0.12 | 0.93 | 0.98 | -0.68 | -0.26 | -1 | -0.28 | Growth Rate ([1]; 6 h, replicate number 1): 0.6 |
| NC(=O)C1CCCc2c1[nH]c1ccc(Cl)cc21 (stereo not drawn) | 0.75 | -0.98 | – | – | 0.85 | 0.68 | – | 1 | – | 0.88 | – | 1 | 0.96 | 0.22 | 0.53 | 0.79 | 0.51 | – | – | 0.7 | Growth Rate ([1]; 18 h, replicate number 2): 0.66; Growth Rate ([2]; 12 h, replicate number 2): 0.9; Growth Rate ([2]; 24 h, replicate number 2): 0.88 |
